Source: patent US12384758B2, “Crystalline form of LNP023” (Novartis AG, priority 2020, dated 2025)

Test: Dynamic vapor sorption (DVS) isotherms, 0 to 95% relative humidity
Assay type: physicochemical
Settings: 25±1.0° C.
Method: Dynamic vapor sorption isotherms were recorded with a DVS Advantage instrument. The measurement cycle was started at ambient relative humidity (RH) of 40%. RH was then decreased to 0% in 10% steps. […] 5% steps. Finally, RH was increased to ambient relative humidity of 40% in 10% steps. The time per step was set to a minimum of 3 hours and a maximum of 6 hours. If an equilibrium condition with a constant mass change of 0.002%/min for a minimum of 5 min was reached before the maximum time for all examined samples the sequential humidity step was applied before the maximum time of 6 hours. If no equilibrium was achieved the consecutive humidity step was applied after the maximum time of 6 hours. The temperature was 25±1.0° C.
Therefore, Form HB of LNP023 hydrochloride described herein can be assigned as being non-hygroscopic.

CCO[C@H]1CCN(Cc2c(OC)cc(C)c3[nH]ccc23)[C@H](c2ccc(C(=O)O)cc2)C1.Cl [Form HB of LNP023 hydrochloride, 4-((2S,4S)-(4-ethoxy-1-((5-methoxy-7-methyl-1H-indol-4-yl)methyl)piperidin-2-yl))benzoic acid hydrochloride]
hysteresis between the sorption and desorption curve (DVS sorption 0% to 95% RH, desorption 95 to 0% RH): no significant hysteresis | mass difference between 40 and 95% RH (DVS equilibrium mass change) (DVS, reference weight at 0% RH): less than 0.2 weight % | PXRD after the DVS experiment (physical stability of the form) (after DVS cycle 0 to 95% RH): remains unchanged | hygroscopicity assignment (from DVS, non-hygroscopic defined in b47 as mass increase of less than 0.2% at 80% RH at 25° C.): non-hygroscopic
